This note sets out measurements from US11932606B2, “Anti-cancer/anti-fibrosis compounds” (THE REGENTS OF THE UNIVERSITY OF CALIFORNIA, priority 2017, dated 2024).

Test [1] has as its target HIPK2 (Homo sapiens (Human), UniProt Q9H2X6). Put plainly: HIPK2 enzymatic activity inhibition (Z'-LYTE). The class given is biochemical. How it is done: HIPK2 Enzymatic Activity Inhibition: Determination of IC50 Values for Selected Compounds
The half maximal inhibitory concentration (IC50) with respect to HIPK2 inhibition was determined for the compounds of the invention by using Z′-LYTE™ from ThermoFisher Scientific's SelectScreen™ Biochemical Kinase Profiling Service (Waltham, MA). Compounds were screened in 1% DMSO (final) in the well. For 10 point titrations, 3-fold serial dilutions were conducted from the starting concentration. The 2×HIPK2/Ser/Thr 09 mixture was prepared in 50 mM HEPES pH 7.5, 0.01% BRIJ-35, 10 mM MgCl2, 1 mM EGTA.
100 nL of 100× test compound in 100% DMSO, 2.4 uL of kinase buffer (50 mM HEPES pH 7.5, 0.01% BRIJ-35, 10 mM MgCl2, 1 mM EGTA), 5 uL of 2×HIPK2/Ser/Thr 09 mixture, and 2.5 uL of 4×ATP solution were mixed and agitated for 30 seconds. Then the Kinase Reaction was incubated at room temperature for 60 minutes. […] After 30 second of plate shake, the reaction plate was incubated for another 60 min at room temperature. Then the plate was read on a fluorescence plate reader (CLARIOstar, BMG Labtech, Germany) as plate reader and data was analyzed using XLfit from IDBS.

For test [2], the target named is CSNK2A1 (CK2 alpha 1) (Homo sapiens (Human), UniProt P68400). Put plainly: CK2 alpha 1 enzymatic activity inhibition (Z'-LYTE). It is filed as biochemical. Conditions: read-out: CK2a IC50. The method, then:
CK2 Alpha 1 Enzymatic Activity Inhibition: Determination of IC50 Values for Selected Compounds
The half maximal inhibitory concentration (IC50) with respect to CK2 alpha 1 inhibition was determined for the compounds of the invention by using Z′-LYTE™ from ThermoFisher Scientific's SelectScreen™ Biochemical Kinase Profiling Service (Waltham, MA). Compounds were screened in 1% DMSO (final) in the well. For 10 point titrations, 3-fold serial dilutions were conducted from the starting concentration. The 2×CSNK2A1 (CK2 alpha 1)/Ser/Thr 11 mixture is prepared in 50 mM HEPES pH 7.5, 0.01% BRIJ-35, 10 mM MgCl2, 1 mM EGTA. The black 384-well plate (Corning Cat. #4514) were used for the assay. 100 nL of 100× test compound in 100% DMSO, 2.4 uL of kinase buffer (50 mM HEPES pH 7.5, 0.01% BRIJ-35, 10 mM MgCl2, 1 mM EGTA), 5 uL of 2×CSNK2A1 (CK2 alpha 1)/Ser/Thr 11 mixture, and 2.5 uL of 4×ATP solution were mixed and agitated for 30 seconds. Then the Kinase Reaction was incubated at room temperature for 60 minutes. The final 10 uL Kinase Reaction consisted of 0.68-25.7 ng CSNK2A1 (CK2 alpha 1) and 2 μM Ser/Thr 11 in 50 mM HEPES pH 7.5, 0.01% BRIJ-35, 10 mM MgCl2, 1 mM EGTA. After the 1 hour Kinase Reaction incubation, 5 uL of a 1:16 dilution of Development Reagent B is added. After 30 second of plate shake, the reaction plate was incubated for another 60 min at room temperature. Then the plate was read on a fluorescence plate reader (CLARIOstar, BMG Labtech, Germany) and data was analyzed using XLfit from IDBS. The dose response curve was curve fit to model number 205 (sigmoidal dose-response model).

Molecules are shown by their SMILES. Read-outs that look alike come from different tables or passages of the source.

Sequence of CSNK2A1 (CK2 alpha 1) (P68400 whole entry): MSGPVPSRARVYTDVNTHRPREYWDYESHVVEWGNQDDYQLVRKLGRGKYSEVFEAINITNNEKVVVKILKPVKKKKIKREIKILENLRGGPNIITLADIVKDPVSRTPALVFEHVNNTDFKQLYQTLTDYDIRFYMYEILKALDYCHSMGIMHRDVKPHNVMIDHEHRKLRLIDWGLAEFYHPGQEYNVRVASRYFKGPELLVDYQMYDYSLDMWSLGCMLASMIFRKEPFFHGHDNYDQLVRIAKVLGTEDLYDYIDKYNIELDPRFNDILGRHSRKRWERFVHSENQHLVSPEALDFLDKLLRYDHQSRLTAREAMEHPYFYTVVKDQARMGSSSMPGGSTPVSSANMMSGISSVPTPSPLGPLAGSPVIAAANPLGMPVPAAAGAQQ
Sequence of HIPK2 (Q9H2X6 whole entry): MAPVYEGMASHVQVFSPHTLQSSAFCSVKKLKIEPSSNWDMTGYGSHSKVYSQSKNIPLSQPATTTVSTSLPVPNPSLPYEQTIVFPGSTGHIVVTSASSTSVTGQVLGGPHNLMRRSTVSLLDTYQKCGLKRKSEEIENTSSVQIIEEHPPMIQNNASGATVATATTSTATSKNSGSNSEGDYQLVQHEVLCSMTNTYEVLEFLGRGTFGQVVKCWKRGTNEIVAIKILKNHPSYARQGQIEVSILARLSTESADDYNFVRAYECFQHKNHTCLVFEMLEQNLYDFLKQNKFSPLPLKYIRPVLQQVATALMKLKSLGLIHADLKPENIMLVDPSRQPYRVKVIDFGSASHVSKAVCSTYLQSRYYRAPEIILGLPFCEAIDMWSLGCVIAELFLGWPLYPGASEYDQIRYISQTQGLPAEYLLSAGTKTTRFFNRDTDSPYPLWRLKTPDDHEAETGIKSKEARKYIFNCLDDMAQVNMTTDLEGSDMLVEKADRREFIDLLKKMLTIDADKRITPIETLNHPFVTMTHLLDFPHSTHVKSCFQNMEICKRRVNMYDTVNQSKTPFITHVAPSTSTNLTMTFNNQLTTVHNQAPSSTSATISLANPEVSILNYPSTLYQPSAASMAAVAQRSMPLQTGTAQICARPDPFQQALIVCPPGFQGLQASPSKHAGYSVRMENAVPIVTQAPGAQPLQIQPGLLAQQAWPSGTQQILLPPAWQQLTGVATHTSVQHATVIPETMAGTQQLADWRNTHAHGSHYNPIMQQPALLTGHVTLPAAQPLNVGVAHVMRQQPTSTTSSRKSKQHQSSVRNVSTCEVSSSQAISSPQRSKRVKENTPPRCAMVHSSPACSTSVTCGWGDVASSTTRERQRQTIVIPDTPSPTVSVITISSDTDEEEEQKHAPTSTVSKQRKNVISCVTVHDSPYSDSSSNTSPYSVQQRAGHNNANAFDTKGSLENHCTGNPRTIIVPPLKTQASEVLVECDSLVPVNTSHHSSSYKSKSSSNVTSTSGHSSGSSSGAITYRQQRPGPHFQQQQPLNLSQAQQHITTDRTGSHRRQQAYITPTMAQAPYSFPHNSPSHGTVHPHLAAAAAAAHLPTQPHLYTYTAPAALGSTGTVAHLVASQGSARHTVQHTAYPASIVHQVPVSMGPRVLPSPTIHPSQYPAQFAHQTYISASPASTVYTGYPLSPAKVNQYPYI

The term IC50 denotes the point on the concentration scale where inhibition reaches its midpoint. Regarding `O=C(O)c1ccc2c(c1)cc(Br)c1ccncc12` [Compound 1, Sodium 5-bromobenzo[h]isoquinoline-8-carboxylate], the IC50 in test [1] (read-out: HIPK2 IC50) and in test [2] was less than 300 nM each time.

Consider `O=C(O)c1ccc2c(ccc3ccncc32)c1` [Compound 2, Sodium benzo[h]isoquinoline-8-carboxylate], for which the IC50 in test [1] was 1000 to 5000 nM; in test [2] it was less than 300 nM.

Regarding `O=C(O)c1ccc2c(c1)cc(Cl)c1ccncc12` [Compound 3, Sodium 5-chlorobenzo[h]isoquinoline-8-carboxylate], the IC50 is 300 to 1000 nM in test [1] and less than 300 nM in test [2].

Consider `O=C(O)c1ccc2c(c1)cc(Nc1cccc(Cl)c1)c1ccncc12` [Compound 4, Sodium 5-((3-chlorophenyl)amino)benzo[h]isoquinoline-8-carboxylate], for which the values for the IC50 in test [1] and in test [2] were 300 to 1000 nM and less than 300 nM, respectively.

Regarding `O=C(O)c1ccc2c(c1)cc(Nc1ccc(Cl)cc1)c1ccncc12` [Compound 5, Sodium 5-((4-chlorophenyl)amino)benzo[h]isoquinoline-8-carboxylate], the IC50 was 300 to 1000 nM in test [1] and less than 300 nM in test [2].

Turning to `O=C(O)c1ccc2c(c1)cc(-c1ccc(Cl)cc1)c1ccncc12` [Compound 6, Sodium 5-(4-chlorophenyl)benzo[h]isoquinoline-8-carboxylate], the IC50 fell in the range of 1000 to 5000 nM in test [1] and 300 to 1000 nM in test [2].

Take `O=C(O)c1ccc2c(c1)cc(-c1cccnc1)c1ccncc12` [Compound 7, Sodium 5-(pyridin-3-yl)benzo[h]isoquinoline-8-carboxylate]: the results for the half-maximal inhibitory concentration (IC50) in test [1] and in test [2] were 1000 to 5000 nM and less than 300 nM, respectively.

In the case of `O=C(O)c1ccc2c(c1)cc(-c1ccncc1)c1ccncc12` [Compound 8, Sodium 5-(pyridin-4-yl)benzo[h]isoquinoline-8-carboxylate], the IC50 in test [1] was 1000 to 5000 nM; in test [2], less than 300 nM.

For `Cc1cc2cc(C(=O)O)ccc2c2cnccc12` [Compound 9, Sodium 5-methylbenzo[h]isoquinoline-8-carboxylate], the IC50 is 300 to 1000 nM in test [1] and less than 300 nM in test [2].

Regarding `Nc1ccc(-c2cc3cc(C(=O)O)ccc3c3cnccc23)cn1` [Compound 10, Sodium 5-(6-aminopyridin-3-yl)benzo[h]isoquinoline-8-carboxylate], the IC50 in test [1] is 300 to 1000 nM; in test [2], less than 300 nM.

As for `O=C(O)c1ccc2c(c1)cc(-c1cc[nH]n1)c1ccncc12` [Compound 11, Sodium 5-(1H-pyrazol-3-yl)benzo[h]isoquinoline-8-carboxylate], the results for the IC50 in test [1] and in test [2] were 1000 to 5000 nM and less than 300 nM, respectively.

Turning to `O=C(O)c1ccc2c(c1)cc(NC1CCCCC1)c1ccncc12` [Compound 12, Sodium 5-(cyclohexylamino)benzo[h]isoquinoline-8-carboxylate], the IC50 in test [1] is 300 to 1000 nM; in test [2], less than 300 nM.

For the molecule `O=C(O)c1ccc2c(c1)cc(N[C@@H]1CCCNC1)c1ccncc12` [Compound 13, (R)-5-(Piperidin-3-ylamino)benzo[h]isoquinoline-8-carboxylic acid], the IC50 in test [1] and in test [2] was 1000 to 5000 nM throughout.

On to `N[C@@H]1CCCN(c2cc3cc(C(=O)O)ccc3c3cnccc23)C1` [Compound 14, (R)-5-(3-Aminopiperidin-1-yl)benzo[h]isoquinoline-8-carboxylic acid], for which the IC50 was more than 5000 nM in test [1] (read-out: HIPK2 IC50) and less than 300 nM in test [2].

Turning to `O=C(O)c1ccc2c(c1)cc(NC1CCCC1)c1ccncc12` [Compound 15, Sodium 5-(cyclopentylamino)benzo[h]isoquinoline-8-carboxylate], the IC50 in test [1] is 300 to 1000 nM; in test [2] it was less than 300 nM.

As to `CC(C)CNc1cc2cc(C(=O)O)ccc2c2cnccc12` [Compound 16], the concentration for half-maximal inhibition (IC50) in test [2] is less than 300 nM.

On to `O=C(O)c1ccc2c(c1)cc(NC1CC1)c1ccncc12` [Compound 17, Sodium 5-(cyclopropylamino)benzo[h]isoquinoline-8-carboxylate], for which the IC50 in test [1] (read-out: HIPK2 IC50) and in test [2] was less than 300 nM each time.

Take `O=C(O)c1ccc2c(c1)cc(NC1CCC1)c1ccncc12` [Compound 18, Sodium 5-(cyclobutylamino)benzo[h]isoquinoline-8-carboxylate]: the IC50 in test [1] was 300 to 1000 nM; in test [2], less than 300 nM.

As for `CC[C@H](C)Nc1cc2cc(C(=O)O)ccc2c2cnccc12` [Compound 19, (S)-5-(sec-Butylamino)benzo[h]isoquinoline-8-carboxylic acid], the IC50 is 1000 to 5000 nM in test [1] and less than 300 nM in test [2].

On to `O=C(O)c1ccc2c(c1)cc(N1CCCCC1)c1ccncc12` [Compound 20, Sodium 5-(piperidin-1-yl)benzo[h]isoquinoline-8-carboxylate], for which the IC50 in test [1] was 300 to 1000 nM; in test [2], less than 300 nM.

In the case of `CC(C)Nc1cc2cc(C(=O)O)ccc2c2cnccc12` [Compound 21, Sodium 5-(isopropylamino)benzo[h]isoquinoline-8-carboxylate], the results for the half-inhibitory concentration (IC50) in test [1] and in test [2] were 300 to 1000 nM and less than 300 nM, respectively.

For `CC[C@@H](C)Nc1cc2cc(C(=O)O)ccc2c2cnccc12` [Compound 22, Sodium (R)-5-(sec-butylamino)benzo[h]isoquinoline-8-carboxylate], the IC50 in test [1] (read-out: HIPK2 IC50) and in test [2] was less than 300 nM throughout.

For `O=C(O)c1ccc2c(c1)cc(Br)c1ccnc(Cl)c12` [Compound 23, Sodium 5-bromo-1-chlorobenzo[h]isoquinoline-8-carboxylate], the half-inhibitory concentration (IC50) in test [1] is 300 to 1000 nM; in test [2] it was less than 300 nM.

As for `O=C(O)c1ccc2c(c1)cc(Br)c1cc(Cl)ncc12` [Compound 24, Sodium 5-bromo-3-chlorobenzo[h]isoquinoline-8-carboxylate], the figures for the IC50 in test [1] (read-out: HIPK2 IC50) and in test [2] were more than 5000 nM and 1000 to 5000 nM, respectively.

Take `O=C(O)c1ccc2c(ccc3ccnc(Cl)c32)c1` [Compound 25, Sodium 1-chlorobenzo[h]isoquinoline-8-carboxylate]: the IC50 in test [1] is 1000 to 5000 nM; in test [2], less than 300 nM.

For `O=C(O)c1ccc2c(c1)cc([N+](=O)[O-])c1ccncc12` [Compound 26, Sodium 5-nitrobenzo[h]isoquinoline-8-carboxylate], the IC50 in test [1] was 300 to 1000 nM; in test [2], less than 300 nM.

Turning to `N#Cc1cc2cc(C(=O)O)ccc2c2cnccc12` [Compound 27, Sodium 5-cyanobenzo[h]isoquinoline-8-carboxylate], the IC50 in test [1] is 300 to 1000 nM; in test [2] it was less than 300 nM.

As for `O=C(O)c1ccc2c(c1)cc(C1CC1)c1ccncc12` [Compound 28, Sodium 5-cyclopropylbenzo[h]isoquinoline-8-carboxylate], the IC50 was 300 to 1000 nM in test [1] and less than 300 nM in test [2].

For `CN(C)c1nccc2c(Br)cc3cc(C(=O)O)ccc3c12` [Compound 30, Sodium 5-bromo-1-(dimethylamino)benzo[h]isoquinoline-8-carboxylate], the IC50 in test [1] and in test [2] was 1000 to 5000 nM in each case.

In the case of `O=C(O)c1ccc2c(c1)cc(Br)c1ccnc(NC3CC3)c12` [Compound 31, Sodium 5-bromo-1-(cyclopropylamino)benzo[h]isoquinoline-8-carboxylate], the IC50 in test [1] and in test [2] was 1000 to 5000 nM each time.

`CNc1nccc2c(Br)cc3cc(C(=O)O)ccc3c12` [Compound 32, Sodium 5-bromo-1-(methylamino)benzo[h]isoquinoline-8-carboxylate]: the results for the IC50 in test [1] and in test [2] were 1000 to 5000 nM and 300 to 1000 nM, respectively.
